Several values for one entry are separate records, joined by “and”; a condition that tells them apart may be missing. Identical values can stand only once.
target: T1, receptor interacting protein kinase 1 (GST-hRIPK1 (8-327)) (Homo sapiens, UniProt Q13546); experiment: Fluorescent Polarization Binding (FP Binding) assay; conditions: 10 nM GST-hRIPK1 (8-327), 5 nM fluorescent-labeled ligand, 30 min at RT
T1 construct: GST-hRIPK1 (8-327) enzyme was generated by Proteros GmbH by Baculovirus expression system
T1 sequence (Q13546 8-327): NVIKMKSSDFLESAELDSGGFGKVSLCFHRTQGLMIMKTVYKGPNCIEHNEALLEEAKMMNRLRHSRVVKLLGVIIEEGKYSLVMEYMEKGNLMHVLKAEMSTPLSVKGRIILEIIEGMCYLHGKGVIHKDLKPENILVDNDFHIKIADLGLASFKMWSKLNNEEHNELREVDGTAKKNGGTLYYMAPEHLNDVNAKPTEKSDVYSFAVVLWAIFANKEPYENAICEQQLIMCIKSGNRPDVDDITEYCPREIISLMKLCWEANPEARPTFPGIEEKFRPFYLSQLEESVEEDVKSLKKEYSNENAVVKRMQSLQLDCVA
In short: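 Displacement of 5 nM fluorescent ligand from 10 nM GST-hRIPK1 (8-327), 30 min at room temperature in pH 7.5 HEPES buffer, 1% DMSO. Fluorescence polarization read (ex 531/em 595 nm); IC50 fitted from percent inhibition and averaged over at least two independent experiments.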

| Structure (SMILES) | IC50 |
| --- | --- |
| CC(C)(C)C(=O)N1OCC[C@H]1c1ccn2nccc2c1 [Compound 132, 2,2-dimethyl-1-[(3S)-3-{pyrazolo[1,5-a]pyridin-5-yl}-1,2-oxazolidin-2-yl]propan-1-one] | < 1 µM |
| CC1(C(=O)N2OCC[C@H]2c2ccc(F)nc2)CC1(F)F (single isomer, unassigned) [Compound 112] | < 1 µM |
| C[C@H](O)C(=O)N1OCC[C@H]1c1ccccc1 [Compound 15, (2S)-2-Hydroxy-1-[(3S)-3-phenyl-1,2-oxazolidin-2-yl]propan-1-one] | > 10 µM |
| CC1(C(=O)N2OCC[C@H]2c2ccc(F)cc2)CN(CC(F)F)C1 [Compound 90, (3S)-2-[1-(2,2-difluoroethyl)-3-methylazetidine-3-carbonyl]-3-(4-fluorophenyl)-1,2-oxazolidine] | < 1 µM |
| CC(CC(F)(F)F)C(=O)N1OCC[C@H]1c1ccc(C#N)cc1 (single isomer, unassigned) [Compound 231] | < 1 µM |
| Cc1cnc([C@@H]2CCON2C(=O)C(C)(C)C)cn1 [Compound 138, 2,2-dimethyl-1-[(3S)-3-(5-methylpyrazin-2-yl)-1,2-oxazolidin-2-yl]propan-1-one] | < 1 µM |
| CC(C)(C)C(=O)N1OCC[C@H]1c1ccc(C(F)F)cc1 [Compound 128, 1-[(3S)-3-[4-(difluoromethyl)phenyl]-1,2-oxazolidin-2-yl]-2,2-dimethylpropan-1-one] | < 1 µM |
| CC(C)(C)C(=O)N1OCC[C@H]1c1cncc(F)c1 [Compound 133, 1-[(3S)-3-(5-fluoropyridin-3-yl)-1,2-oxazolidin-2-yl]-2,2-dimethylpropan-1-one] | < 1 µM |
| CC(C(=O)N1OCC[C@H]1c1ccc(F)nc1)C1CC1 (single isomer, unassigned) [Compound 117] | < 1 µM |
| CC(C)(C)OC(=O)N1OCCC1c1ccc(Cl)cc1 (centres unmarked) [Compound 49, tert-Butyl 3-(4-chlorophenyl)-1,2-oxazolidine-2-carboxylate] | < 1 µM |
| CC1(C(=O)N2OCC[C@H]2c2ccc(F)cc2)CC1(F)F (single isomer, unassigned) [Compound 115] | < 1 µM |
| CC(C)(C)C(=O)N1OCCC1c1cccnc1 (centres unmarked) [Compound 58, 2,2-Dimethyl-1-[3-(pyridin-3-yl)-1,2-oxazolidin-2-yl]propan-1-one] | < 1 µM |
| CC(OC(F)(F)F)C(=O)N1OCC[C@H]1c1ccc(F)nc1 (single isomer, unassigned) [Compound 185] | 1 to 10 µM |
| CC(C)(C)C(=O)N1OCC[C@H]1c1ccc(Cl)cc1 [Compound 47, 1-[(3S)-3-(4-Chlorophenyl)-1,2-oxazolidin-2-yl]-2,2-dimethylpropan-1-one] | < 1 µM |
| CC(C(=O)N1OCC[C@H]1c1ccc(F)cc1)C(F)(F)F (single isomer, unassigned) [Compound 95] | < 1 µM |
| CC(C)(C)C(=O)N1OCC[C@@H]1c1ccc(F)c(F)c1 [Compound 51, 1-[(3R)-3-(3,4-Difluorophenyl)-1,2-oxazolidin-2-yl]-2,2-dimethylpropan-1-one] | 1 to 10 µM |
| [2H]C1([2H])C[C@@H](c2ccc(C#N)cc2)N(C(=O)C(C)(C)C)O1 (single isomer, unassigned) [Compound 98] | < 1 µM |
| Cc1cnc([C@@H]2CCON2C(=O)C(C)C(F)(F)F)cn1 (single isomer, unassigned) [Compound 130] | < 1 µM |
| N#Cc1ccc([C@@H]2CCON2C(=O)C2(C(F)F)CC2)cc1 [Compound 187, 4-[(3S)-2-[1-(difluoromethyl)cyclo-propanecarbonyl]-1,2-oxazolidin-3-yl]benzonitrile] | < 1 µM |
| CC(C(=O)N1OCC[C@H]1c1ccc(F)nc1)C1CC1 (single isomer, unassigned) [Compound 116] | < 1 µM |
| CC(C)(C)C(=O)N1OCC[C@H]1c1cccnc1F [Compound 66, 1-[(3S)-3-(2-Fluoropyridin-3-yl)-1,2-oxazolidin-2-yl]-2,2-dimethylpropan-1-one] | < 1 µM |
| Cc1cncc([C@@H]2CCON2C(=O)C(C)(C)C)n1 (single isomer, unassigned) [Compound 107] | < 1 µM |
| C[C@@]1(C(=O)N2OCC[C@H]2c2ccc(F)cc2)CCC(=O)N1 [Compound 191, (5S)-5-[(3S)-3-(4-fluorophenyl)-1,2-oxazolidine-2-carbonyl]-5-methylpyrrolidin-2-one] | < 1 µM |
| CC(C)(C)C(=O)N1OCC[C@H]1c1ccc([N+](=O)[O-])nc1 [Compound 223, 2,2-dimethyl-1-[(3S)-3-(6-nitropyridin-3-yl)-1,2-oxazolidin-2-yl]propan-1-one] | < 1 µM |

| Structure (SMILES) | IC50 |
| --- | --- |
| CC(C)(C)C(=O)N1OCC[C@H]1c1cc(F)cc(F)c1 (single isomer, unassigned) [Compound 103] | < 1 µM |
| COc1cc([C@@H]2CCON2C(=O)C(C)(C)C)ccn1 [Compound 144, 1-[(3S)-3-(2-methoxypyridin-4-yl)-1,2-oxazolidin-2-yl]-2,2-dimethylpropan-1-one] | < 1 µM |
| CC1CC1C(=O)N1OCC[C@H]1c1ccc(C#N)cc1 (single isomer, unassigned) [Compound 216] | 1 to 10 µM |
| N#Cc1ccc([C@@H]2CCON2C(=O)C23C4C5C6C4C2C6C53)cc1 (stereo partly drawn) [Compound 238, 4-[(3S)-2-(cubane-1-carbonyl)-1,2-oxazolidin-3-yl]benzonitrile] | < 1 µM |
| CC(C)(C)C(=O)N1OCC[C@H]1c1ccnc(F)c1 [Compound 46, 1-[(3S)-3-(2-Fluoropyridin-4-yl)-1,2-oxazolidin-2-yl]-2,2-dimethylpropan-1-one] | < 1 µM |
| CC1(C(=O)N2OCC[C@H]2c2ccc(F)c(F)c2)CCOC1 (single isomer, unassigned) [Compound 212] | < 1 µM |
| Cc1ncc([C@@H]2CCON2C(=O)C(C)(C)C(F)F)cc1F [Compound 195, 3,3-difluoro-1-[(3S)-3-(5-fluoro-6-methylpyridin-3-yl)-1,2-oxazolidin-2-yl]-2*2-dimethylpropan-1-one] | < 1 µM and 0.01 µM |
| CC(C)(C(=O)N1OCC[C@H]1c1ccc(C(F)F)nc1)C(F)F [Compound 221, 1-[(3S)-3-[6-(difluoromethyl)pyridin-3-yl]-1,2-oxazolidin-2-yl]-3,3-difluoro-2,2-dimethylpropan-1-one] | < 1 µM and 0.07 µM |
| CCC1(C(=O)N2OCC[C@H]2c2ccc(F)cc2)COC1 [Compound 38, (3S)-2-(3-Ethyloxetane-3-carbonyl)-3-(4-fluorophenyl)-1,2-oxazolidine] | < 1 µM |
| CC(C)(C)C(=O)N1OCC[C@@H]1c1ccc(F)nc1 (single isomer, unassigned) [Compound 62] | 1 to 10 µM |
| CC(C)(CC#N)C(=O)N1OCC[C@H]1c1ccc(C#N)cc1 [Compound 181, 4-[(3S)-2-(3-cyano-2,2-dimethylpropanoyl)-1,2-oxazolidin-3-yl]benzonitrile] | < 1 µM |
| CC(C)(C(=O)N1OCC[C@H]1c1ccc(F)nc1)C(F)F [Compound 169, 3,3-difluoro-1-[(3S)-3-(6-fluoropyridin-3-yl)-1,2-oxazolidin-2-yl]-2,2-dimethylpropan-1-one] | < 1 µM |
| CC(C)(C(=O)N1OCC[C@H]1c1cncc(C#N)c1)C(F)F [Compound 200, (S)-5-(2-(3,3-difluoro-2,2-dimethylpropanoyl)isoxazolidin-3-yl)nicotinonitrile] | < 1 µM and 0.009 µM |
| CC(C(=O)N1OCC[C@H]1c1ccc(F)nc1)C(F)(F)F (single isomer, unassigned) [Compound 162] | < 1 µM |
| [2H]C([2H])([2H])C(C(=O)N1OCC[C@H]1c1ccc(F)cc1)(C([2H])([2H])[2H])C([2H])([2H])[2H] [Compound 173, 1-[(3S)-3-(4-fluorophenyl)-1,2-oxazolidin-2-yl]-2,2-bis(^2H3)methyl(^2H3) propan-1-one] | < 1 µM |
| CC(C)(CC#N)C(=O)N1OCC[C@H]1c1ccc(F)nc1 [Compound 165, 4-[(3S)-3-(6-fluoropyridin-3-yl)-1,2-oxazolidin-2-yl]-3,3-dimethyl-4-oxobutanenitrile] | < 1 µM |
| CC(C)(CC#N)C(=O)N1OCC[C@H]1c1ccc(C(F)F)nc1 [Compound 131, 4-(3S)-3-[6-(difluoromethyl)pyridin-3-yl]-1,2-oxazolidin-2-yl-3,3-dimethyl-4-oxobutanenitrile] | < 1 µM |
| CC(C)(C)C(=O)N1OCC[C@H]1c1cc2ccccn2n1 [Compound 124, 2,2-dimethyl-1-[(3S)-3-{pyrazolo[1,5-A]pyridin-2-yl}-1,2-oxazolidin-2-yl]propan-1-one] | < 1 µM |
| CC1(C(=O)N2OCC[C@H]2c2ccc(F)nc2)CCOC1 (single isomer, unassigned) [Compound 142] | < 1 µM |
| CC(C)(C)C(=O)N1OCC[C@@H]1c1ccnc(F)c1 [Compound 45, 1-[(3R)-3-(2-Fluoropyridin-4-yl)-1,2-oxazolidin-2-yl]-2,2-dimethylpropan-1-one] | 1 to 10 µM |
| Cn1cc([C@@H]2CCON2C(=O)C(C)(C)C(F)F)cn1 [Compound 198, (S)-3,3-difluoro-2,2-dimethyl-1-(3-(1-methyl-1H-pyrazol-4-yl)isoxazolidin-2-yl)propan-1-one] | < 1 µM and 0.051 µM |
| O=C(N1OCC[C@H]1c1ccc(F)cc1)C1(C(F)(F)F)CCCC1 [Compound 29, (3S)-3-(4-fluorophenyl)-2-[1-(trifluoromethyl)cyclo-pentanecarbonyl]-1,2-oxazolidine] | < 1 µM |
| O=C(C1CC1(F)F)N1OCC[C@H]1c1ccc(F)cc1 (single isomer, unassigned) [Compound 236] | < 1 µM |

Reference: patent publication US10709692B2, “Isoxazolidine derived inhibitors of receptor interacting protein kinase 1 (RIPK1)” (Denali Therapeutics Inc., priority 2015, dated 2020)
